The text below walks through data of US20140088034A1, “NITRIC OXIDE/cGMP PATHWAY INHIBITION OF VLA-4 RELATED CELL ADHESION” (STC.UNM, priority 2011, published 2014).

Test [1] addresses T1, VLA-4 (Homo sapiens, UniProt P05556+P13612). The following applies: cited from earlier work.
Test [2] has as its target T1, VLA-4. Briefly: Kinetic dissociation rate (koff) analysis of LDV-FITC probe on U937 cells with non-desensitizing FPR mutant. It is filed as cell-based. The following applies: U937 FPR ΔST, LDV-FITC 25 nM, LDV block 2 μM. As to the method:
The experiment involved sequential addition of BAY 41-2272 (100 μM, guanylyl cyclase activator) or vehicle (control) at the 0 time point, and the fluorescent LDV-FITC probe (4 nM), and CXCL8/IL-8 (20 nM) (arrows). Excess unlabelled competitor LDV (1 μM) added at the end of the experiment to determine the non-specific binding of the probe. This experiment is analogous to the one shown in panel B. One representative experiment of two experiments is shown. Curves are means of two independent determinations calculated on a point-by-point basis (n=2). […] D, Kinetic analysis of binding and dissociation of LDV-FITC probe on U937 cells stably transfected with the non-desensitizing mutant of FPR. Cells were sequentially treated with the LDV-FITC probe (25 nM, near saturation), the Gαi-coupled receptor ligand (fMLFF, 100 nM), BAY 41-2272 (guanylyl cyclase activator, 50 μM) (arrows). At time points indicated by arrows, cells were treated with excess unlabeled LDV containing small molecule (2 μM), and the dissociation of the fluorescent molecule was followed. Dissociation rate constants (koff) were obtained by fitting dissociation curves to a single exponential decay equation (as described in the text). Experiments shown in the different panels were performed using different instruments, and therefore MCF values are not identical. E, Dissociation rate values, obtained in experiments analogous to panel B, summarized as a bar graph showing mean and SEM (n=4). Colors of the dissociation curves in panel D and bars on panel E are matching. The difference between koffs for “resting” and “fMLFF activated”, and between “fMLFF activated” and “fMLFF activated and treated with BAY 41-2272” is statistically significant (P=0.0006<0.05) as calculated by one-way analysis of variance (ANOVA) using GraphPad Prism software. […]
Next, the regions of the ligand-binding curves corresponding to the dissociation of the LDV-FITC probe were fitted to a single exponential decay equation. […] The affinity state induced by guanylyl cyclase activator was quantitatively similar to the resting state before activation. […]

Test [3] has as its target T1, VLA-4. Description: LDV-FITC equilibrium binding to VLA-4 (Kd and calculated receptor occupancy). An excerpt:
Previously, we described and characterized in detail a model ligand an LDV-FITC containing small molecule ([14, 42-44], and references therein) for the detection of VLA-4 conformational regulation. This VLA-4 specific fluorescent probe was based on a highly specific α4β1-integrin inhibitor BIO1211, which contains the Leu-Asp-Val (LDV) ligand binding motif from the alternatively spliced connecting segment-1 (CS-1) peptide of cellular fibronectin [17, 45]. We established that integrin affinity changes, detected using this probe, vary in parallel with the natural VLA-4 ligand, human VCAM-1 [46]. For real-time detection of rapid integrin conformational changes, cells were treated with LDV-FITC (FIG. 2, first arrow), which was added after establishing a baseline for unstained cells, indicated on FIG. 2A as “autofluorescence”. Next, data were acquired for 2-3 minutes, and cells were activated with fMLFF (high affinity FPR ligand), CXCL12/SDF-1 (CXCR4 ligand), or CXCL8/IL-8 (CXCR2 ligand), for FPR, CXCR4, CXCR2 transfected cells, respectively (FIGS. 2A, B, and C). […] The change in occupancy was detected as a rapid increase in the mean channel fluorescence (MCF). This signal increase was sustained for the case of a non-desensitizing mutant of FRP (FIG. 2A), and reversible for the wild-type receptors (CXCR4, and CXCR2, FIG. 2B,C). Next, cells were treated with the nitric oxide donor, or vehicle (control). Acquisition was re-established, and data were acquired continuously for up to 720-840 s. […] In the absence of receptor desensitization, the effect of nitric oxide was more evident in cells transfected with a non-desensitizing mutant of FPR (vehicle, FIG. 2A). However, the effect of the nitric oxide donor was statistically significant for both wild-type GPCRs. […] To emphasize statistically the difference between control and experimental samples, standard errors of mean are indicated using error bars for every experimental point in FIG. 2B, 2C, 2D, 2E.
Kinetic analysis of the binding and dissociation of the LDV-FITC probe was described previously. […]

[4] abbreviates: 4 nM probe, calculated based on the one site binding equation.

Read-outs that look alike come from different tables or passages of the source.

T1 sequence (P13612 34-1032): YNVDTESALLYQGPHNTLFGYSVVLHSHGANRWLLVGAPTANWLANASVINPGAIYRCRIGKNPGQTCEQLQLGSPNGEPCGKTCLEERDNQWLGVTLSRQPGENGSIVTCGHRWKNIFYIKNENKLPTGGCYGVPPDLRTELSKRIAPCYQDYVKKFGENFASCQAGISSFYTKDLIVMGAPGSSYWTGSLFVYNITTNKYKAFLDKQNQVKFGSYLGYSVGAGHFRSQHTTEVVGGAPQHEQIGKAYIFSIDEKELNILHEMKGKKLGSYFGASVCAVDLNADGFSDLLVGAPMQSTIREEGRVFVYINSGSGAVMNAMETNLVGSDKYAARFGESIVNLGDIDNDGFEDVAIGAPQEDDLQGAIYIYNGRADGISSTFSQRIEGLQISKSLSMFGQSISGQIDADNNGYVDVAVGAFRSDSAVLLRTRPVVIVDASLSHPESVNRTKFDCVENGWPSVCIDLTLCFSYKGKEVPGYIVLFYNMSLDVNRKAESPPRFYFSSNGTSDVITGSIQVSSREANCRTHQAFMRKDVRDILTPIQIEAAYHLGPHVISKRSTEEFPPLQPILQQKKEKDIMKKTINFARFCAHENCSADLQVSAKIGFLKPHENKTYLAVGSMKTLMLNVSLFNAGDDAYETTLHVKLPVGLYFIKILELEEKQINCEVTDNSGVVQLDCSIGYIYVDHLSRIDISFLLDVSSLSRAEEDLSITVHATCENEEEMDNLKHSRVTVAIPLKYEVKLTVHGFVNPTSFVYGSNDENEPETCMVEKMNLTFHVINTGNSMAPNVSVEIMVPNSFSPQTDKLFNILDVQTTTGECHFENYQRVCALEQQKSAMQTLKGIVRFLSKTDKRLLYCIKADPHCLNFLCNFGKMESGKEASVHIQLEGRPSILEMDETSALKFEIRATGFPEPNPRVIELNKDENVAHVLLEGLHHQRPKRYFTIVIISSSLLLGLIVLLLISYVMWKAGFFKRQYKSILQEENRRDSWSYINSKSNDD
T1 sequence (P05556 21-798): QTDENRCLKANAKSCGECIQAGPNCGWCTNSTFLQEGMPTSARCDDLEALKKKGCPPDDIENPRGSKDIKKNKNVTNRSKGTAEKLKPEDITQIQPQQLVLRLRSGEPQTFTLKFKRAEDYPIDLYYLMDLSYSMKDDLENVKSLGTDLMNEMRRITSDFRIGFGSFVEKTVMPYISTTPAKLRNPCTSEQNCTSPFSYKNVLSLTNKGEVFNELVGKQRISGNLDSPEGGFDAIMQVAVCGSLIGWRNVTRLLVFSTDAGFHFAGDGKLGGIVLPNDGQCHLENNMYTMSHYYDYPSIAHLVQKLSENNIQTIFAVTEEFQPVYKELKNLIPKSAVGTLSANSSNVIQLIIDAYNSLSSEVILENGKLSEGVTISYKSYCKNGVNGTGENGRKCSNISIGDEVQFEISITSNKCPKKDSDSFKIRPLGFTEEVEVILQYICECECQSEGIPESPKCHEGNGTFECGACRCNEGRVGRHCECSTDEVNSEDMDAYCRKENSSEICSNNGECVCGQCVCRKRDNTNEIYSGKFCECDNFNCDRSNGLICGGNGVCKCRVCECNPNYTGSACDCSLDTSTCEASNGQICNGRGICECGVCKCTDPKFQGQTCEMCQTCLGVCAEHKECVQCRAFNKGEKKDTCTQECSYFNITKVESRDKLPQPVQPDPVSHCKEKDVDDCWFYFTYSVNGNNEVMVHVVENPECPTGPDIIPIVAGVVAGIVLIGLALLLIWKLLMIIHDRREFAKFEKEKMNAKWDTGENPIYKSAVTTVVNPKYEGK

What is called Kd is a measure of binding affinity in units of concentration. Regarding “4-((N′-2-methylphenyl)ureido)-phenylacetyl-L-leucyl-L-aspartyl-L-valyl-L-prolyl-L-alanyl-L-alanyl-L-lysine-FITC [LDV-FITC]”, the equilibrium dissociation constant (Kd) at VLA-4 [1] (physiologically activated VLA-4, high affinity state, read-out: Kd for physiologically activated VLA-4 (high affinity state)) is 1 to 2 nM. Besides, the Kd at VLA-4 [1] (resting VLA-4, low affinity state, read-out: Kd for binding to resting VLA-4 (low affinity state)) was around 12 nM. Moreover, the “dissociation rate constant koff of LDV-FITC, resting cells” value on VLA-4 [2] (at rest) was around 0.04 ± 0.001 s⁻¹. Further, the “dissociation rate constant koff of LDV-FITC after cell activation by fMLFF” value at VLA-4 [2] (fMLFF 100 nM) is around 0.018 ± 0.0001 s⁻¹. Besides, at VLA-4 [3] (setting [4]), the “receptor occupancy, high affinity state” value is given as 70-80% and the “receptor occupancy, low affinity state” value is reported as around 25%. Further, the “sites occupied before activation” value at VLA-4 [3] (25 nM probe, low affinity state) is around 70%.
